Test results reported in patent publication US7652022B2, “Diaryl urea derivatives useful for the treatment of protein kinase dependent diseases” (Novartis AG, priority 2002, dated 2010).

molecular target: T1, cytoplasmic kinase domain of human Flt-3 (Homo sapiens, UniProt P36888); assay: Flt3 kinase inhibition, GST-Flt-3 filter binding assay; type: biochemical; conditions: % inhibition at 10 μM
T1 construct: amino acids 563-993 of the cytoplasmic kinase domain of human Flt-3; made in house; host or cells: Sf9 insect cells (baculovirus, donor vector pFbacG01)
T1 sequence (P36888 563-993): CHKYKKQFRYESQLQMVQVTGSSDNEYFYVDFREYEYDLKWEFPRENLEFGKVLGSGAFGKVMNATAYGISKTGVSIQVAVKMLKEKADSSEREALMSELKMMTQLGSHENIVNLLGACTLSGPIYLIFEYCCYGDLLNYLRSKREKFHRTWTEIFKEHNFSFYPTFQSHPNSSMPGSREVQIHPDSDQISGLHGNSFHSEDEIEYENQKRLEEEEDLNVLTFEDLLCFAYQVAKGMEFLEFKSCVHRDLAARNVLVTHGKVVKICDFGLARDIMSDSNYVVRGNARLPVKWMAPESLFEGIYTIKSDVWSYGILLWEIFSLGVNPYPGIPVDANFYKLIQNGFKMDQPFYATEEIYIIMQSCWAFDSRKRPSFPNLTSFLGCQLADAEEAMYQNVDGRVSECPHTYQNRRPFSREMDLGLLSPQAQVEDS
Experimental: Flt3 kinase inhibition is determined as follows: The baculovirus donor vector pFbacG01 (GIBCO) is used to generate a recombinant baculovirus expressing the amino acid region amino acids 563-993 of the cytoplasmic kinase domain of human Flt-3. The coding sequence for the cytoplasmic domain of Flt-3 is amplified by PCR from human c-DNA libraries (Clontech). The amplified DNA fragments and the pFbacG01 vector are made compatible for ligation by digestion with BamH1 and HindIII. Ligation of these DNA fragments results in the baculovirus donor plasmid Flt-3(1.1). The production of the viruses, the expression of proteins in Sf9 cells and the purification of the GST-fused proteins are performed as follows:
Production of virus: Transfer vector (pFbacG01-Flt-3) containing the Flt-3 kinase domain is transfected into the DH10Bac cell line (GIBCO) and the transfected cells are plated on selective agar plates. Colonies without insertion of the fusion sequence into the viral genome (carried by the bacteria) are blue. Single white colonies are picked and viral DNA (bacmid) is isolated from the bacteria by standard plasmid purification procedures. Sf9 or Sf21 cells (American Type Culture Collection) are then transfected in flasks with the viral DNA using Cellfectin reagent. Determination of small scale protein expression in Sf9 cells: Virus containing media is collected from the transfected cell culture and used for infection to increase its titre. Virus containing media obtained after two rounds of infection is used for large-scale protein expression. For large-scale protein expression 100 cm^2 round tissue culture plates are seeded with 5×10^7 cells/plate and infected with 1 mL of virus-containing media (approx. 5 MOIs). After 3 days the cells are scraped off the plate and centrifuged at 500 rpm for 5 min. Cell pellets from 10-20, 100 cm^2 plates, are resuspended in 50 mL of ice-cold lysis buffer (25 mMTris-HCl, pH 7.5, 2 mM EDTA, 1% NP-40, 1 mM DTT, 1 mM PMSF). The cells are stirred on ice for 15 min and then centrifuged at 5000 rpms for 20 min. Purification of GST-tagged proteins: The centrifuged cell lysate is loaded onto a 2 mL glutathione-sepharose column (Pharmacia) and washed three times with 10 mL of 25 mM Tris-HCl, pH 7.5, 2 mM EDTA, 1 mM DTT, 200 mM NaCl. The GST-tagged protein is then eluted by 10 applications (1 mL each) of 25 mM Tris-HCl, pH 7.5, 10 mM reduced-glutathione, 100 mM NaCl, 1 mM DTT, 10% Glycerol and stored at −70° C. Measurement of enzyme activity: Tyrosine protein kinase assays with purified GST-Flt-3 are carried out in a final volume of 30 μL containing 200-1800 ng of enzyme protein (depending on the specific activity), 20 mM Tris-HCl, pH 7.6, 3 mM MnCl2, 3 mM MgCl2, 1 mM DTT, 10 μM Na3VO4, 3 μg/mL poly(Glu,Tyr) 4:1, 1% DMSO, 8.0 μM ATP and 0.1 μCi [γ^33 P] ATP). The activity is assayed in the presence or absence of inhibitors, by measuring the incorporation of ^33P from [γ^33P] ATP into the poly(Glu,Tyr) substrate. The assay (30 μL) is carried out in 96-well plates at ambient temperature for 20 min under conditions described below and terminated by the addition of 20 μL of 125 mM EDTA. Subsequently, 40 μL of the reaction mixture is transferred onto Immobilon-PVDF membrane (Millipore, Bedford, Mass., USA) previously soaked for 5 min with methanol, rinsed with water, then soaked for 5 min with 0.5% H3PO4 and mounted on vacuum manifold with disconnected vacuum source. After spotting all samples, vacuum is connected and each well rinsed with 200 μL 0.5% H3PO4. Membranes are removed and washed 4× on a shaker with 1.0% H3PO4, once with ethanol. Membranes are counted after drying at ambient temperature, mounting in Packard TopCount 96-well frame, and addition of 10 μL/well of Microscint™ (Packard). IC50 values are calculated by linear regression analysis of the percentage inhibition of each compound in duplicate, at four concentrations (usually 0.01, 0.1,1 and 10 μM). […]

Row | Flt3 (% at 10 μM) | Structure (SMILES)
1 | 98% | Cc1ccc(NC(=O)Nc2ccc(Oc3ccncc3)cc2)cc1 [Example 4]
2 | 64% | CCc1ccc(NC(=O)N(C)c2ccc(Oc3ccncc3)cc2)cc1 [Example 5]
3 | 87% | CN(C(=O)Nc1cccc(C(F)(F)F)c1)c1ccc(Oc2ccncc2)cc1 [Example 6]
4 | 67% | CCCc1ccc(NC(=O)N(C)c2ccc(Oc3ccncc3)cc2)cc1 [Example 7]
5 | 57% | Cc1ccc(NC(=O)N(C)c2ccc(Oc3ccncc3)cc2)cc1 [Example 8]
6 | 90% | O=C(Nc1ccc(Oc2ccncc2)cc1)Nc1ccc(Br)c(C(F)(F)F)c1 [Example 9]
7 | 100% | O=C(Nc1ccc(Oc2ccncc2)cc1)Nc1ccc(OCC(F)(F)F)c(C(F)(F)F)c1 [Example 10]
8 | 100% | COc1cc(NC(=O)Nc2ccc(Oc3ccncc3)cc2)cc(C(F)(F)F)c1 [Example 11]
9 | 92% | CCCc1ccc(NC(=O)Nc2ccc(Cc3ccncc3)cc2)cc1 [Example 12]
10 | 95% | CCc1ccc(NC(=O)Nc2ccc(Cc3ccncc3)cc2)cc1 [Example 13]
11 | 89% | Cc1ccc(NC(=O)Nc2ccc(Cc3ccncc3)cc2)cc1 [Example 14]
12 | 96% | O=C(Nc1ccc(Cc2ccncc2)cc1)Nc1cccc(C(F)(F)F)c1 [Example 15]
13 | 94% | CCc1ccc(NC(=O)Cc2ccc(Oc3ccncc3)cc2)cc1 [Example 16, N-(4-pyridin-4-yl-oxy-phenyl)acetyl-(4-ethyl-phenyl)-amide]
14 | 92% | Cc1ccc(NC(=O)Cc2ccc(Oc3ccncc3)cc2)cc1 [Example 17]
15 | 88% | CCCc1ccc(NC(=O)Cc2ccc(Oc3ccncc3)cc2)cc1 [Example 18]
16 | 63% | O=C(Nc1cccc(C(F)(F)F)c1)N1CCc2cc(Oc3ccncc3)ccc21 [Example 19, 5(4-pyridyloxy)-N-(3-trifluoromethyl-phenyl)amino-carbonyl-2,3-dihydroindole]
17 | 69% | O=C(Nc1cccc(C(F)(F)F)c1)N1CCCc2cc(Oc3ccncc3)ccc21 [Example 20]
18 | 94% | O=C(Nc1ccc(Oc2cc(Cl)ncn2)cc1)Nc1cccc(C(F)(F)F)c1 [Example 21, N-(4-(6-Chloropyrimidin-4-yl)-oxyphenyl)-N′-(3-trifluoromethylphenyl)-urea]
19 | 100% | Cc1cc(Oc2ccc(NC(=O)Nc3cccc(C(F)(F)F)c3)cc2)ccn1 [Example 30]
20 | 100% | O=C(Nc1ccc(Oc2cc(Nc3ccc(O)cc3)ncn2)cc1)Nc1ccc(OCC(F)(F)F)c(C(F)(F)F)c1 [Example 32]
